Assay results reported in patent publication US20170190671A1, “BIS(ARYL)CATECHOL DERIVATIVES AS HERBICIDES” (E I DU PONT DE NEMOURS AND COMPANY, priority 2014, published 2017).

What was measured:
Assay type in all cases: in vivo
[1] = test system: ragweed (common ragweed, Ambrosia elatior); test: Test C preemergence; conditions: Ambrosia artemisiifolia, pre-emergence, 336 h, scale 0 to 100, read-out: Plant response rating, Ragweed; for pest or weed control at 31 g/ha: 31 g ai/ha; for pest or weed control at 31 g/ha / pest or weed control at 62 g/ha / pest or weed control at 125 g/ha: preemergence; for pest or weed control at 62 g/ha: 62 g ai/ha; for pest or weed control at 125 g/ha: 125 g ai/ha; for pest or weed control at 16 g/ha: Preemergence, 16 g ai/ha
Procedure, shortened: (§1)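 Seeded loam-sand soil (preemergence) or young potted plants of 2-18 cm (postemergence) received test chemical formulated with surfactant in a non-phytotoxic solvent. Pots were kept in the greenhouse for 13-15 days before a visual 0-100 control rating relative to controls.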

[2] = test system: galium (catchweed bedstraw, Galium aparine); test: Test C preemergence; conditions: Galium, pre-emergence, 336 h, scale 0 to 100, read-out: Plant response rating, Galium; for pest or weed control at 31 g/ha: 31 g ai/ha; for pest or weed control at 31 g/ha / pest or weed control at 62 g/ha / pest or weed control at 125 g/ha: preemergence; for pest or weed control at 62 g/ha: 62 g ai/ha; for pest or weed control at 125 g/ha: 125 g ai/ha; for pest or weed control at 16 g/ha: Preemergence, 16 g ai/ha
Procedure, shortened: as §1

[3] = test system: ducksalad (Heteranthera limosa); test: Test B flooded paddy; conditions: Heteranthera limosa, 336 h; 250 g ai/ha, Flood, 13 to 15 days, scale 0 (no effect) to 100 (complete control); read-out: Plant response rating, Ducksalad
Procedure, shortened: (§2)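 Under a constant 3 cm flood, test compounds went directly into the paddy water. Following 13 to 15 days of greenhouse growth, treated species and controls were compared by eye.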

[4] = test system: barnyardgrass (Echinochloa crus-galli); test: Test B flooded paddy; conditions: Echinochloa crus-galli, 336 h; 250 g ai/ha, Flood, 13 to 15 days, scale 0 (no effect) to 100 (complete control); read-out: Plant response rating, Barnyardgrass
Procedure, shortened: as §2

[5] = test system: sedge, umbrella (small-flower umbrella sedge, Cyperus difformis); test: Test B flooded paddy; conditions: Cyperus difformis, 336 h; 250 g ai/ha, Flood, 13 to 15 days, scale 0 (no effect) to 100 (complete control); read-out: Plant response rating, Sedge, Umbrella
Procedure, shortened: as §2

rice (Oryza sativa) = test: Test B flooded paddy; conditions: Oryza sativa, 336 h; 250 g ai/ha, Flood, 13 to 15 days, scale 0 (no effect) to 100 (complete control); read-out: Plant response rating, Rice
Procedure, shortened: as §2

[6] = test system: Italian ryegrass (Lolium multiflorum); test: Test A postemergence; conditions: Lolium multiflorum, post-emergence, 240 h, 0 to 100 scale, read-out: Plant response rating, Ryegrass, Italian; for pest or weed control at 31 g/ha: 31 g ai/ha; for pest or weed control at 125 g/ha: 125 g ai/ha
Procedure, shortened: (§3)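 Pre- and postemergence greenhouse screen. Soil: loam + sand. Spray carrier: solvent mixture, non-phytotoxic, with surfactant. Post timing at 1–2 leaves, height 2–10 cm. Readout: visual injury on a 0–100 scale roughly 10 days after application, untreated plants as reference.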

[7] = test system: ragweed (common ragweed, Ambrosia elatior); test: Test A postemergence; conditions: Ambrosia artemisiifolia, post-emergence, 240 h, 0 to 100 scale, read-out: Plant response rating, Ragweed; for pest or weed control at 31 g/ha: 31 g ai/ha; for pest or weed control at 125 g/ha: 125 g ai/ha
Procedure, shortened: as §3

[8] = test system: galium (catchweed bedstraw, Galium aparine); test: Test A postemergence; conditions: Galium, post-emergence, 240 h, 0 to 100 scale, read-out: Plant response rating, Galium; for pest or weed control at 31 g/ha: 31 g ai/ha; for pest or weed control at 125 g/ha: 125 g ai/ha
Procedure, shortened: as §3

[9] = test system: giant foxtail (Setaria faberii); test: Test A postemergence; conditions: Setaria faberi, post-emergence, 240 h, 0 to 100 scale, read-out: Plant response rating, Foxtail, Giant; for pest or weed control at 31 g/ha: 31 g ai/ha; for pest or weed control at 125 g/ha: 125 g ai/ha
Procedure, shortened: as §3

[10] = test system: pigweed (Amaranthus retroflexus); test: Test A postemergence; conditions: Amaranthus retroflexus, post-emergence, 240 h, 0 to 100 scale, read-out: Plant response rating, Pigweed; for pest or weed control at 31 g/ha: 31 g ai/ha; for pest or weed control at 125 g/ha: 125 g ai/ha
Procedure, shortened: as §3

kochia (Kochia scoparia) [11] = test: Test A postemergence; conditions: Bassia scoparia, post-emergence, 240 h, 0 to 100 scale, read-out: Plant response rating, Kochia; for pest or weed control at 31 g/ha: 31 g ai/ha; for pest or weed control at 125 g/ha: 125 g ai/ha
Procedure, shortened: as §3

corn (Zea mays) = test: Test A postemergence; conditions: Zea mays, post-emergence, 240 h, 0 to 100 scale; for Corn plant response rating (crop injury, 0 = no effect, 100 = complete kill) at 31 g/ha: 31 g ai/ha; for Corn plant response rating (crop injury, 0 = no effect, 100 = complete kill) at 125 g/ha: 125 g ai/ha
Procedure, shortened: as §3

[12] = test system: barnyardgrass (Echinochloa crus-galli); test: Test A postemergence; conditions: Echinochloa crus-galli, post-emergence, 240 h, 0 to 100 scale, read-out: Plant response rating, Barnyardgrass; for pest or weed control at 31 g/ha: 31 g ai/ha; for pest or weed control at 125 g/ha: 125 g ai/ha
Procedure, shortened: as §3

[13] = test system: blackgrass (Alopecurus myosuroides); test: Test A postemergence; conditions: Alopecurus myosuroides, post-emergence, 240 h, 0 to 100 scale, read-out: Plant response rating, Blackgrass; for pest or weed control at 31 g/ha: 31 g ai/ha; for pest or weed control at 125 g/ha: 125 g ai/ha
Procedure, shortened: as §3

[14] = test system: wheat (Triticum aestivum); test: Test A postemergence; conditions: Triticum aestivum, post-emergence, 240 h, 0 to 100 scale, read-out: Plant response rating, Wheat; for plant injury at 31 g/ha: 31 g ai/ha; for plant injury at 125 g/ha: 125 g ai/ha
Procedure, shortened: as §3

[15] = test system: Italian ryegrass (Lolium multiflorum); test: Test A preemergence; conditions: Lolium multiflorum, pre-emergence, 240 h, 0 to 100 scale (0 no effect, 100 complete control), read-out: Ryegrass, Italian plant response rating; for pest or weed control at 31 g/ha: 31 g ai/ha; for pest or weed control at 125 g/ha: 125 g ai/ha
Procedure, shortened: as §3

[16] = test system: ragweed (common ragweed, Ambrosia elatior); test: Test A preemergence; conditions: Ambrosia artemisiifolia, pre-emergence, 240 h, 0 to 100 scale (0 no effect, 100 complete control), read-out: Ragweed plant response rating; for pest or weed control at 31 g/ha: 31 g ai/ha; for pest or weed control at 125 g/ha: 125 g ai/ha
Procedure, shortened: as §3

[17] = test system: giant foxtail (Setaria faberii); test: Test A preemergence; conditions: Setaria faberi, pre-emergence, 240 h, 0 to 100 scale (0 no effect, 100 complete control), read-out: Foxtail, Giant plant response rating; for pest or weed control at 31 g/ha: 31 g ai/ha; for pest or weed control at 125 g/ha: 125 g ai/ha
Procedure, shortened: as §3

[18] = test system: pigweed (Amaranthus retroflexus); test: Test A preemergence; conditions: Amaranthus retroflexus, pre-emergence, 240 h, 0 to 100 scale (0 no effect, 100 complete control), read-out: Pigweed plant response rating; for pest or weed control at 31 g/ha: 31 g ai/ha; for pest or weed control at 125 g/ha: 125 g ai/ha
Procedure, shortened: as §3

kochia (Kochia scoparia) [19] = test: Test A preemergence; conditions: Bassia scoparia, pre-emergence, 240 h, 0 to 100 scale (0 no effect, 100 complete control), read-out: Kochia plant response rating; for pest or weed control at 31 g/ha: 31 g ai/ha; for pest or weed control at 125 g/ha: 125 g ai/ha
Procedure, shortened: as §3

[20] = test system: barnyardgrass (Echinochloa crus-galli); test: Test A preemergence; conditions: Echinochloa crus-galli, pre-emergence, 240 h; for pest or weed control at 31 g/ha: 31 g ai/ha, 0 to 100 scale (0 no effect, 100 complete control), read-out: Barnyardgrass plant response rating; for pest or weed control at 125 g/ha: 125 g ai/ha, 0 to 100 scale, read-out: Plant response rating, Barnyardgrass
Procedure, shortened: as §3

Fc1cnc(Oc2c(F)ccc(F)c2Oc2ncc(F)cn2)nc1 [Compound 29, 2,2′-[(3,6-difluoro-1,2-phenylene)bis(oxy)]bis[5-fluoropyrimidine]]
100%: pest or weed control at 31 g/ha [2] | pest or weed control at 62 g/ha [2] | pest or weed control at 125 g/ha [2] | pest or weed control at 31 g/ha [8] | pest or weed control at 125 g/ha [8] | pest or weed control at 125 g/ha (kochia (Kochia scoparia) [11]) | pest or weed control at 125 g/ha [17] | pest or weed control at 31 g/ha [18] | pest or weed control at 125 g/ha [18] | pest or weed control at 125 g/ha (kochia (Kochia scoparia) [19]) | pest or weed control at 125 g/ha [20]
60%: pest or weed control at 125 g/ha [7] | pest or weed control at 125 g/ha [9]
85%: pest or weed control at 31 g/ha [1] | pest or weed control at 62 g/ha [1] | plant injury at 250 g/ha (rice (Oryza sativa))
90%: pest or weed control at 16 g/ha [1] | pest or weed control at 250 g/ha [3] | pest or weed control at 250 g/ha [4] | pest or weed control at 31 g/ha [10] | pest or weed control at 125 g/ha [10] | Corn plant response rating (crop injury, 0 = no effect, 100 = complete kill) at 125 g/ha (corn (Zea mays)) | pest or weed control at 125 g/ha [13] | pest or weed control at 125 g/ha [16]
30%: pest or weed control at 31 g/ha [9] | plant injury at 31 g/ha [14] | pest or weed control at 125 g/ha [15]
10%: pest or weed control at 31 g/ha [20]
0%: pest or weed control at 31 g/ha [15] | pest or weed control at 31 g/ha [16]
95%: pest or weed control at 125 g/ha [1] | pest or weed control at 16 g/ha [2]
20%: pest or weed control at 31 g/ha [6] | pest or weed control at 125 g/ha [6] | Corn plant response rating (crop injury, 0 = no effect, 100 = complete kill) at 31 g/ha (corn (Zea mays)) | pest or weed control at 31 g/ha [12]
40%: pest or weed control at 31 g/ha [7]
75%: pest or weed control at 250 g/ha [5]
80%: pest or weed control at 31 g/ha (kochia (Kochia scoparia) [11]) | pest or weed control at 125 g/ha [12] | pest or weed control at 31 g/ha [13] | plant injury at 125 g/ha [14] | pest or weed control at 31 g/ha [17] | pest or weed control at 31 g/ha (kochia (Kochia scoparia) [19])

N#Cc1cccc(Oc2ncc(Cl)cn2)c1Oc1cnc(Cl)cn1 [Compound 32, 2-[(5-chloro-2-pyrazinyl)oxy]-3-[(5-chloro-2-pyrimidinyl)oxy]benzonitrile]
50%: pest or weed control at 125 g/ha [1] | pest or weed control at 125 g/ha [6] | pest or weed control at 31 g/ha [9] | Corn plant response rating (crop injury, 0 = no effect, 100 = complete kill) at 125 g/ha (corn (Zea mays))
75%: pest or weed control at 250 g/ha [3]
70%: pest or weed control at 250 g/ha [4] | pest or weed control at 125 g/ha [13]
40%: plant injury at 250 g/ha (rice (Oryza sativa)) | pest or weed control at 31 g/ha [12]
20%: pest or weed control at 31 g/ha [1]
0%: plant injury at 31 g/ha [14] | pest or weed control at 31 g/ha [16]
60%: pest or weed control at 31 g/ha [13] | pest or weed control at 125 g/ha [15]
10%: pest or weed control at 62 g/ha [1] | pest or weed control at 16 g/ha [1] | pest or weed control at 16 g/ha [2] | pest or weed control at 31 g/ha [6] | pest or weed control at 31 g/ha [7] | pest or weed control at 31 g/ha [15]
30%: pest or weed control at 125 g/ha [7] | Corn plant response rating (crop injury, 0 = no effect, 100 = complete kill) at 31 g/ha (corn (Zea mays)) | plant injury at 125 g/ha [14] | pest or weed control at 125 g/ha [16] | pest or weed control at 31 g/ha [20]
90%: pest or weed control at 250 g/ha [5] | pest or weed control at 31 g/ha [8] | pest or weed control at 125 g/ha [8] | pest or weed control at 125 g/ha [9] | pest or weed control at 31 g/ha (kochia (Kochia scoparia) [11]) | pest or weed control at 125 g/ha (kochia (Kochia scoparia) [11]) | pest or weed control at 125 g/ha [20]
100%: pest or weed control at 31 g/ha [10] | pest or weed control at 125 g/ha [10] | pest or weed control at 125 g/ha [12] | pest or weed control at 31 g/ha [17] | pest or weed control at 125 g/ha [17] | pest or weed control at 31 g/ha [18] | pest or weed control at 125 g/ha [18] | pest or weed control at 31 g/ha (kochia (Kochia scoparia) [19]) | pest or weed control at 125 g/ha (kochia (Kochia scoparia) [19])
95%: pest or weed control at 31 g/ha [2] | pest or weed control at 62 g/ha [2] | pest or weed control at 125 g/ha [2]
